Results as given in patent publication US20250084453A1, “SYSTEMS, COMPOSITIONS AND METHODS FOR IDENTIFYING E3 LIGASE SUBSTRATES BY UBIQUITIN BIOTINYLATION” (The Broad Institute, Inc., priority 2022, published 2025).

Tested on: CRBN E3 ligase
Experiment: MS comparison of loss-of-function CRBN-BirA mutants (D249Y, W386A) with WT CRBN-BirA under CC-885
Type: cell-based, human
Conditions: CC-885 1 μM, 1 hour; D249Y and W386A; FIGS. 16A, 16B
Procedure: Experiments were performed to identify substrates of an E3 ligase using CRBN as a representative E3 ligase. The experiments compared loss-of-function mutants of an E3 ligase (e.g., CRBN E3 ligase) to the wildtype (WT) ligase. FIGS. 16A and 16B show the results of a mass spectrometry experiment in which protein substrates susceptible to CC-885 induced ubiquitination were identified. These experiments were performed in HEK293T^CRBN−/− cells transiently expressing A3-HA-Ub and either WT CRBN-BirA or CRBN-BirA mutant D249Y (FIG. 16A) or CRBN-BirA mutant W386A (FIG. 16B). Compared with CRBN(WT), CRBN(D249Y) had decreased association with the CRL4 complex, while CRBN(W386A) had decreased affinity for CC-885. Both mutants were expected to have a diminished ability to ubiquitinate CC-885-induced substrates. While cultured in biotin-free medium, the cells were pre-treated with carfilzomib (carf; 0.4 μM) for 1 hour, and then were treated with the IMiD derivative CC-885 (1 μM) for another hour. […] Enrichment of biotinylated species by streptavidin-coated beads, protein digestion, and protein identification and quantification by mass spectrometry were performed exactly as described in Example 3 and 4. […]

In the case of `Cc1ccc(NC(=O)NCc2ccc3c(c2)CN(C2CCC(=O)NC2=O)C3=O)cc1Cl` (stereo not shown) [CC-885], the “Induced ubiquitinated substrates revealed by decreased biotinylation with CRBN-BirA mutants versus WT” value is reported as “GSPT1, GSPT2, VCL and CSNK1A1”.
